Consider 1 molecule from patent US20050287078A1, “Minimizing powder retention on surfaces” (MEDERIO AG, priority 2004, published 2005).

This data set is described as follows: Ipratropium climate stability tests (fine particle dose out of HandiHaler, Andersen impactor). As to conditions: Atrovent powder, 1 month at 25° C./60% Rh or 40° C./75% Rh, FIG. 4.

Method: The powder was withdrawn from the originator's capsules and transferred to the capsules again after climate storage. The aerodynamic fine particle fraction (FPF) in the emitted dose from the HandiHaler® was measured using Andersen impactors according to European Pharmacopoeia (EP) and US Pharmacopoeia (USP). All analytical work were then performed according to standardized methods using a state of the art High Performance Liquid Chromatograph (HPLC) system.
Aerodynamic fine particle fraction of metered and delivered dose out of Handihaler® using Atrovent® formulation powder was analyzed. Transfer of powder from and back into originator capsules was performed in relative humidity below 10%. The test was performed with 4 kPa pressure drop over the HandiHaler® at room temperature and laboratory ambient conditions.
An in-use stability test was carried out of the aerodynamic fine particle fraction of metered and delivered dose out of Handihaler®. From the blister holding the Atrovent® capsules the powder was transferred to a medium moisture barrier container and sealed. The containers were put for 1 month in 25° C. and 60% Rh. The container holding the powder was then put in an exicator for 2 h before tests were performed. The inhaler test was performed with 4 kPa pressure drop over the HandiHaler® at room temperature and laboratory ambient conditions. […]

For `CC(C)[N+]1(C)[C@@H]2CC[C@H]1CC(OC(=O)C(CO)c1ccccc1)C2.[Br-]` (stereo partly shown) [ipratropium bromide], the “Moisture sensitivity (drop in fine particle dose, FPD)” value is “very moisture sensitive”.
